The text below walks through data of patent US11529361B2, “Halogenated salicylanilides for treating Clostridium infections” (UNION therapeutics A/S, priority 2015, dated 2022).

≈ marks a conversion by molar mass, not a printed value. Like-named read-outs stand apart in the source and are kept apart here.

For data set [1] the following is noted: via the urinary tract or by enzymatic metabolism in the liver; cited from earlier work.
For data set [2], the system named is cats. To be noted: p.o.; cited from earlier work.
Data set [3] has as its system mice. To be noted: p.o.; cited from earlier work.
Data set [4] concerns C. difficile clinical isolates. The experiment in a line: MIC determination by microbroth dilution per CLSI guideline (Example 1). The settings on record: Clostridioides difficile. In kind it is cell-based, Clostridium difficile. Background: Broth dilution looks for growth in wells or tubes with falling amounts of substance.
For data set [5] the following is noted: cited from earlier work.
For data set [6], the system named is Clostridium difficile 7-6011209. The format is cell-based.
The subject of data set [7] is rats. The settings on record: p.o., median over studies; cited from earlier work.
Data set [8] deals with 24 clinical isolate strains of C. difficile. The experiment in a line: Additional MIC determinations, antibacterial activity by OD600 (Example 3). In kind it is cell-based, Clostridium difficile.
Data set [9] deals with C. difficile. The settings on record: published data (footnote a); cited from earlier work.
Data set [10] deals with C. difficile clinical isolates. The settings on record: C. difficile strain ATCC 700057, reference control; cited from earlier work.
The mark [11] stands for this setting: read-out: C. difficile Strain 7-6011209 MIC.
[12] abbreviates: read-out: C. difficile Strain 12055 MIC.

A word on the LD50: it is the dose at which mortality reaches 50%. One may read the MIC as the smallest concentration in the dilution series that meets the test's criterion for growth inhibition. As usually defined, the MIC90 is the lowest concentration that inhibits either 90% of growth or 90% of the strains tested, depending on the study. As for `O=C(Nc1ccc([N+](=O)[O-])cc1Cl)c1cc(Cl)ccc1O` [Niclosamide, 2′,5-dichloro-4′-nitrosalicylanilide], the “clearance from the bloodstream” value in data set [1] was “quickly cleared”. Also, the LD50 is on record as above 1000 mg/kg in [2] and above 5000 mg/kg in [3]. The MIC in [4] (isolate 7-5085357, read-out: MIC of clinical isolates of C. difficile) was 0.125 µg/mL; in data set [4] (isolate 7-5779928, read-out: MIC of clinical isolates of C. difficile), 0.25 µg/mL; in data set [4] (isolate 7-6008526, read-out: MIC of clinical isolates of C. difficile), 0.25 µg/mL; in data set [4] (isolate 7-6011209, read-out: MIC of clinical isolates of C. difficile) it was 0.06 µg/mL; in data set [4] (isolate 7-6778909, read-out: MIC of clinical isolates of C. difficile), 0.25 µg/mL; in data set [4] (isolate 7-6854508, read-out: MIC of clinical isolates of C. difficile) it was 0.125 µg/mL. Also, the MIC worked out at 0.25 µg/mL in data set [4] (isolate 7-6870430, read-out: MIC of clinical isolates of C. difficile); 0.125 µg/mL in [4] (isolate 7-7104022, read-out: MIC of clinical isolates of C. difficile); 0.125 µg/mL in data set [4] (isolate 7-7116411, read-out: MIC of clinical isolates of C. difficile); 0.125 µg/mL in data set [4] (isolate 7-7124449, read-out: MIC of clinical isolates of C. difficile); 0.125 µg/mL in data set [4] (isolate 7-7149204, read-out: MIC of clinical isolates of C. difficile); 0.125 µg/mL in data set [4] (isolate 7-7150288, read-out: MIC of clinical isolates of C. difficile). For the same compound, the MIC in [4] (isolate 7-7150318, read-out: MIC of clinical isolates of C. difficile) amounted to 0.125 µg/mL; in data set [4] (isolate 7-7150628, read-out: MIC of clinical isolates of C. difficile), 0.125 µg/mL; in [4] (isolate 7-7150997, read-out: MIC of clinical isolates of C. difficile), 0.125 µg/mL; in data set [4] (isolate 7-7151551, read-out: MIC of clinical isolates of C. difficile) it was 0.25 µg/mL; in [4] (isolate 7-7152701, read-out: MIC of clinical isolates of C. difficile), 0.25 µg/mL; in data set [4] (isolate 7-7153872, read-out: MIC of clinical isolates of C. difficile), 0.5 µg/mL. The MIC is 0.25 µg/mL in data set [4] (isolate 7-7154712 (listed twice), read-out: MIC of clinical isolates of C. difficile); 0.25 µg/mL in data set [4] (isolate 7-7154992, read-out: MIC of clinical isolates of C. difficile); 0.25 µg/mL in data set [4] (isolate 7-7156197, read-out: MIC of clinical isolates of C. difficile); 0.25 µg/mL in [4] (isolate 7-7200552, read-out: MIC of clinical isolates of C. difficile); 0.125 µg/mL in data set [4] (isolate 7-7363761, read-out: MIC of clinical isolates of C. difficile); 0.125 µg/mL in [4] (isolate 12055, read-out: MIC of clinical isolates of C. difficile). Moreover, the MIC is 0.125 µg/mL in data set [4] (isolate 12060, read-out: MIC of clinical isolates of C. difficile); 0.06 µg/mL in data set [4] (isolate 12061, read-out: MIC of clinical isolates of C. difficile); 0.06 µg/mL in [4] (isolate 12062, read-out: MIC of clinical isolates of C. difficile); 0.06 µg/mL in [4] (isolate 12063, read-out: MIC of clinical isolates of C. difficile); 0.06 µg/mL in [4] (isolate 12064, read-out: MIC of clinical isolates of C. difficile); 0.5 µg/mL (≈ 1.53 µM) in data set [4] (niclosamide, matches Table 2, read-out: Highest MIC observed). The same compound registered an MIC90 in data set [4] (footnote b: data from tables herein) of 0.06 to 0.25 µg/mL (≈ 0.183 to 0.764 µM). Besides, the solubility in water result in [5] is on record as “poorly soluble in water”.
In the case of `O=C(Nc1ccc(Oc2ccc(Cl)cc2)c(Cl)c1)c1cc(I)cc(I)c1O` [Rafoxanide], in [6], the “formation of heat-resistant spores over time” value was “suppressed formation of spores throughout the 96 hour study period”. Moreover, the LD50 in data set [3] is 232 to 300 mg/kg. For the same compound, the “LD50, median” value in data set [7] is reported as above 1490 mg/kg. Besides, the MIC is below 0.08 µg/mL in data set [4] (setting [11]); below 0.08 µg/mL in [4] (setting [12]); 0.016 µg/mL (≈ 0.0256 µM) in [8] (strain 7-5085357 (ST028)); below 0.008 µg/mL in [8] (strain 7-6011209 (ST002)); below 0.008 µg/mL in data set [8] (strain 7-6778909 (ST016)); below 0.008 µg/mL in [8] (strain 7-6854508 (ST013)). Further, the MIC was below 0.008 µg/mL in [8] (strain 7-6870430 (ST001)); below 0.008 µg/mL in [8] (strain 7-7104022 (ST103)); 0.031 µg/mL (≈ 0.0495 µM) in [8] (strain 7-7116411 (ST005)); 0.031 µg/mL (≈ 0.0495 µM) in data set [8] (strain 7-7124449 (ST009)); below 0.008 µg/mL in [8] (strain 7-7149204 (ST006)); below 0.008 µg/mL in data set [8] (strain 7-7150288 (ST003)). Further, the MIC was below 0.008 µg/mL in data set [8] (strain 7-7150318 (ST059)); 0.31 µg/mL (≈ 0.495 µM) in data set [8] (strain 7-7150628 (ST034)); below 0.008 µg/mL in data set [8] (strain 7-7150997 (ST049)); 0.016 µg/mL (≈ 0.0256 µM) in [8] (strain 7-7154992 (ST139)); 0.063 µg/mL (≈ 0.101 µM) in data set [8] (strain 7-7200552 (ST017)); below 0.008 µg/mL in [8] (strain 12055). Further, the MIC was 0.031 µg/mL (≈ 0.0495 µM) in [8] (strain 12060); 0.016 µg/mL (≈ 0.0256 µM) in [8] (strain 12061); 0.016 µg/mL (≈ 0.0256 µM) in [8] (strain 12062); below 0.008 µg/mL in data set [8] (strain 12063); below 0.008 µg/mL in data set [8] (strain 12064); 0.016 µg/mL (≈ 0.0256 µM) in data set [8] (strain 12065). The MIC in data set [8] (strain 12066) worked out at 0.063 µg/mL (≈ 0.101 µM).
On to `CN[C@H](CC(C)C)C(=O)N[C@H]1C(=O)N[C@@H](CC(N)=O)C(=O)N[C@H]2C(=O)N[C@H]3C(=O)N[C@H](C(=O)N[C@H](C(=O)O)c4cc(O)cc(O)c4-c4cc3ccc4O)[C@H](O)c3ccc(c(Cl)c3)Oc3cc2cc(c3O[C@@H]2O[C@H](CO)[C@@H](O)[C@H](O)[C@H]2O[C@H]2C[C@](C)(N)[C@H](O)[C@H](C)O2)Oc2ccc(cc2Cl)[C@H]1O` [Vancomycin], for which, in [9], the “Highest MIC observed” value is given as 16^a μg/mL and the MIC90 is recorded as 2^a μg/mL. Further, the “expected MIC of reference control strain” value in data set [10] is 1 µg/mL. In addition, the MIC in [4] (setting [11]) is 0.125 µg/mL (≈ 0.0863 µM). For the same compound, the MIC in data set [4] (setting [12]) amounted to 0.25 µg/mL (≈ 0.173 µM).
